Experimental data taken from US20260373078A1 (NANJING QINLING PHARMACEUTICAL TECHNOLOGY COMPANY LIMITED, priority 2023, published 2026).

What was measured:
[1] = Water solubility of wogonin / uniform solution with arginine; assay type: physicochemical; settings: arginine 2%-10% (w/v)
From the text: In addition, in order to ensure that a pH of the solution remains stable within a range of 7.0-11.0, an appropriate amount of citric acid may need to be added to the formulation, with a content of 0.01%-0.05% (w/v).

[2] = test system: human glioma cancer cells; settings: Tsai et al., Int J Mol Sci. 2012; cited from earlier work

COc1c(O)cc(O)c2c(=O)cc(-c3ccccc3)oc12 [Wogonin, wogonin]
content of wogonin at which a uniform solution may be obtained [1]: 0.1-5.0 % (w/v) | reactive oxygen species production and cell apoptosis [2]: induces reactive oxygen species production and cell apoptosis
